Laboratory results taken from US11524055B2, “Methods for treating diseases mediated by ERBB4-positive pro-inflammatory macrophages” (Children's Hospital Los Angeles, priority 2015, dated 2022).

System: M1-polarized Mø (classically activated BMDMs)
Test: Cell Titer Blue (resazurin-based) cell viability assay, classically activated (M1) BMDMs
Parameters: species or system mouse
Conditions: 1 h pre-treatment, then 100 ng/ml NRG4 and 100 ng/ml LPS
Experimental: (FIG. 8A) Classically activated (M1) or alternatively activated (M2) BMDMs were treated with NRG4 (100 ng/ml) for 48 hours and analyzed by resazurin-based cell titer assay to assess cell numbers compared to control. (FIG. 8B) Classically activated BMDMs pre-incubated for 30 minutes with or without 2 μg/ml ErbB4 neutralizing antibody (E4BA), and treated with or without NRG4 (100 ng/ml) for 48 hours, were stained for cleaved caspase-3. […] (FIG. 8C) Classically activated BMDMs treated with NRG4 (100 ng/ml) for 48 hours were stained for annexin V and propidium iodide (PI), and analyzed by flow cytometry to determine apoptotic cells. n=3-6 independent experiments for each panel. Error bars represent SEM. *, p<0.05; **, p<0.01.
(FIG. 9B) Classically activated BMDMs were pre-treated for 1 hour with metalloprotease inhibitor (GM6001, 10 γ-secretase inhibitor (DAPT, 10 or ADAM17 inhibitor (GW280264X, 3 μM) followed by 100 ng/ml NRG4 and 100 ng/ml LPS. Percent cell viability was analyzed by rezasurin-based cell titer assay. Error bars represent SEM. ***, p<0.001. (FIG. 9C) Immunofluorescence analysis of ErbB4 localization to the mitochondria of classically activated BMDMs treated with or without NRG4 (100 ng/ml) for 48 hours. Arrows point to representative cells with ErbB4/mitochondrial overlap. n=4 independent experiments.
IFNγ/LPS-treated Mø were exposed to NRG4 (100 ng/ml)+/−ErbB4 blocking antibody (E4BA; 2 μg/ml) for 48 h and counted by Cell Titer Blue assay (Promega). n=4. *, p<0.01.
For BMDMs, adherent cells were washed at 3 days and re-fed with M-CSF containing media until experimentation at day 7-8. For M1 polarization, cells were pre-treated with 100 U/ml IFNγ for 16 hours, then stimulated with 100 ng/ml LPS.
BMDMs were plated in 96 well plates at 40,000 cells per well. Cells were washed and plated in DMEM with 10% heat-inactivated FBS, 100 U/ml penicillin and streptomycin, and given 100 U/ml IFNγ overnight. […] Relative cell numbers were determined by Cell Titer Blue (resazurin-based assay) following manufacturer's instructions (Promega, G8081). […]

Row | Molecule | Effect on NRG4-induced cell death (percent cell viability) (inhibitor 10 μM) | Effect on NRG4-induced cell death (percent cell viability) (inhibitor 3 μM)
1 | C[C@H](NC(=O)Cc1cc(F)cc(F)c1)C(=O)N[C@H](C(=O)OC(C)(C)C)c1ccccc1 [DAPT] | protected against the NRG4-induced cell death | –
2 | CNC(=O)[C@H](Cc1c[nH]c2ccccc12)NC(=O)[C@@H](CC(=O)NO)CC(C)C [GM6001] | protected against the NRG4-induced cell death | –
3 | GW280264X | – | protected against the NRG4-induced cell death
